Test results from patent publication US9605004B2, “Chemical compounds” (SYNGENTA LIMITED, priority 2013, dated 2017).

How the values were obtained:
[1] = system: a variety of test species; experiment: Post-emergence herbicidal activity (Example 8b, Table 3); format: in vivo; details: application post-emergence, rate 1000 g/ha, evaluated after 13 days, scale 0-5; for Herbicidal damage score, ABUTH: Abutilon theophrasti; for Herbicidal damage score, ALOMY: Alopecurus myosuroides; for Herbicidal damage score, AMARE: Amaranthus retroflexus; for Herbicidal damage score, ECHCG: Echinochloa crus-galli; for Herbicidal damage score, SETFA: Setaria faberi; for Herbicidal damage score, ZEAMX: Zea mays
Method: (§1) Seeds of a variety of test species were sown in standard soil in pots. After 8 days cultivation (post-emergence) under controlled conditions in a glasshouse (at 24/16° C., day/night; 14 hours light; 65% humidity), the plants were sprayed with an aqueous spray solution derived from the formulation of the technical active ingredient in acetone/water (50:50) solution containing 0.5% Tween 20 (polyoxyethelyene sorbitan monolaurate, CAS RN 9005-64-5). The test plants were then grown in a glasshouse under controlled conditions (at 24/16° C., day/night; 14 hours light; 65% humidity) and watered twice daily. After 13 days, the test was evaluated (5=total damage to plant; 0=no damage to plant).

[2] = system: a variety of test species; experiment: Pre-emergence herbicidal activity (Example 8a, Table 2); format: in vivo; set-up: key: 0 = no damage to plant, 5 = total damage to plant; details: application pre-emergence, rate 1000 g/ha, evaluated after 13 days
Method: as §1, with “After” for “After 8 days”, “for one day (pre-emergence)” for “(post-emergence)”

SMILES	Herbicidal damage score, ABUTH [1]	Herbicidal damage score, ALOMY [1]	Herbicidal damage score, AMARE [1]	Herbicidal damage score, ECHCG [1]	Herbicidal damage score, SETFA [1]	Herbicidal damage score, ZEAMX [1]	Pre-emergence herbicidal activity, damage score ABUTH [2]	Pre-emergence herbicidal activity, damage score ALOMY [2]	Pre-emergence herbicidal activity, damage score AMARE [2]	Pre-emergence herbicidal activity, damage score ECHCG [2]	Pre-emergence herbicidal activity, damage score SETFA [2]	Pre-emergence herbicidal activity, damage score ZEAMX [2]
CC1=C(Cl)C(=O)N(c2cc(C(C)(C)C)[nH]n2)C1O (stereo not drawn) [Compound A1]	5	5	5	5	5	5	5	3	5	5	5	2
CC1=C(Cl)C(=O)N(c2cc(C(F)(F)F)[nH]n2)C1O (stereo not drawn) [Compound A2]	5	4	3	4	5	1	5	0	5	3	0	2
CC1=C(Cl)C(=O)N(c2cc(C(C)C)[nH]n2)C1O (stereo not drawn) [Compound A3]	5	5	5	5	5	5	5	3	5	5	5	1
CC1=C(Cl)C(=O)N(c2cc(C3CC3)[nH]n2)C1O (stereo not drawn) [Compound A4]	5	5	5	5	5	5	5	4	5	5	5	2
CC1=C(Cl)C(=O)N(c2cc(C)[nH]n2)C1O (stereo not drawn) [Compound A5]	5	4	3	5	5	3	5	3	5	5	4	2
CC1=C(Cl)C(=O)N(c2cc(C(F)(F)C(F)(F)F)[nH]n2)C1O (stereo not drawn) [Compound A6]	5	5	5	5	4	4	5	3	5	4	4	1
CCC(C)(CC)c1cc(N2C(=O)C(Cl)=C(C)C2O)n[nH]1 (stereo not drawn) [Compound A7]	5	5	5	5	5	5	5	3	5	5	5	3
CC1=C(Cl)C(=O)N(c2cc(C)n(C)n2)C1O (stereo not drawn) [Compound B1]	5	4	5	5	5	5	5	3	5	4	4	3
CC1=C(Cl)C(=O)N(c2cc(C(C)(C)C)n(C)n2)C1O (stereo not drawn) [Compound B2]	5	5	5	5	5	5	5	4	5	5	5	2
CC1=C(Cl)C(=O)N(c2cc(C(F)(F)F)n(C)n2)C1O (stereo not drawn) [Compound B3]	5	5	5	5	5	4	5	4	4	5	4	2
CC1=C(Cl)C(=O)N(c2cc(C(F)(F)C(F)(F)F)n(C)n2)C1O (stereo not drawn) [Compound B4]	5	5	5	5	5	3	5	4	5	5	5	2
CC1=C(Cl)C(=O)N(c2cc(C(C)C)n(C)n2)C1O (stereo not drawn) [Compound B5]	5	4	5	5	4	5	5	3	5	5	4	2
